Here are results for 33 compounds from patent US20130023531A1, “PYRIMIDO[5,4-D]PYRIMIDYLAMINO PHENYL SULFONAMIDES AS SERINE/THREONINE KINASE INHIBITORS” (BOEHRINGER INGELHEIM INTERNATIONAL GMBH, priority 2011, published 2013).

The subject of the assay is SK-MEL-28 cells (B-RAF V600E mutated). Kind of assay: Inhibition of the proliferation of cultivated human melanoma cells (SK-MEL-28), AlamarBlue. The assay is classed as cell-based. Particulars: SK-MEL-28 melanoma cells, 72 h incubation. As for the experimental part: Measurement of the Inhibition of the Proliferation of Cultivated Human Melanoma Cells (SK-MEL-28, B-RAF^V600E mutated)
For measuring the proliferation of cultivated human tumour cells, cells of the melanoma cell line SK-MEL-28 [from American Type Culture Collection (ATCC)] are cultivated in MEM medium, supplemented with 10% foetal calf serum, 2% sodium bicarbonate, 1 mM sodium pyruvate, 1% non-essential amino acids (e.g. from Cambrex, # BE13-114E) and 2 mM glutamine. SK-MEL-28 cells are placed in 96-well flat bottomed dishes in a density of 2500 cells per well in supplemented MEM medium (see above) and incubated overnight in an incubator (at 37° C. and 5% CO2). The active substances are added to the cells in different concentrations, so that a concentration range of 50 μM to 3.2 nM is covered. If necessary the initial concentration of 50 μM is changed to 10 μM or 2 μM and further dilution is carried out accordingly (up to 0.6 nM or 0.12 nM). After an incubation period of a further 72 h 20 μL AlamarBlue reagent (Serotec Ltd., # BUF012B) are added to each well and the cells are incubated for a further 3-6 h. The colour change of the AlamarBlue reagent is determined in a fluorescence spectrophotometer (e.g. Gemini, Molecular Devices). EC50 values are calculated using a software program (GraphPadPrizm).
(In general: Resazurin is reduced to fluorescent resorufin, in cell work by metabolically active cells.)

`CCCS(=O)(=O)Nc1ccc(F)c(Nc2ncnc3cnc(-n4cnc(C)c4)nc23)c1F` [Example I-1] returned an EC50 (Homo sapiens, SK-MEL-28, 72 h) of 276 nM.

For the compound `CCCS(=O)(=O)Nc1ccc(F)c(Nc2ncnc3cnc(N4CCOCC4)nc23)c1F` [Example I-2], the EC50 (Homo sapiens, SK-MEL-28, 72 h) came out at 514 nM. `CCCS(=O)(=O)Nc1ccc(F)c(Nc2ncnc3cnc(N4CCN(CCOC)CC4)nc23)c1F` [Example I-3] registered an EC50 (Homo sapiens, SK-MEL-28, 72 h) of 1190 nM. For the setting “Homo sapiens, SK-MEL-28, 72 h”, `CCCS(=O)(=O)Nc1ccc(F)c(Nc2ncnc3cnc(N4CCN(C)CC4)nc23)c1F` [Example I-4] registered an EC50 of 1480 nM.

As to `CCCS(=O)(=O)Nc1ccc(F)c(Nc2ncnc3cnc(NC4CCOC4)nc23)c1F` (stereo not drawn) [Example I-5], the response (Homo sapiens, SK-MEL-28, 72 h) was half-maximal at 668 nM (EC50).

The compound `CCCS(=O)(=O)Nc1ccc(F)c(Nc2ncnc3cnc(N4CCC(F)(F)C4)nc23)c1F` [Example I-6] came in with an EC50 (Homo sapiens, SK-MEL-28, 72 h) of 493 nM.

Take `CCCS(=O)(=O)Nc1ccc(F)c(Nc2ncnc3cnc(N4CC[C@H](F)C4)nc23)c1F` [Example I-7]: the EC50 was determined as 176 nM. Compound `CCCS(=O)(=O)Nc1ccc(F)c(Nc2ncnc3cnc(N4CC[C@H](F)C4)nc23)c1F` [Example I-8] showed an EC50 of 522 nM. Turning to `CCCS(=O)(=O)Nc1ccc(F)c(Nc2ncnc3cnc(N4CCN(CCN5CCOCC5)CC4)nc23)c1F` [Example I-9], where the note is “Homo sapiens, SK-MEL-28, 72 h”, a half-maximal response (EC50) required 1140 nM. Same read-out and setting: to `CCCS(=O)(=O)Nc1ccc(F)c(Nc2ncnc3cnc(NC4CC(N5CCN(C)CC5)C4)nc23)c1F` (stereo not drawn) [Example I-10] belongs 1270 nM. In the case of `CCCS(=O)(=O)Nc1ccc(F)c(Nc2ncnc3cnc(N4CCN(C5CCN(C)CC5)CC4)nc23)c1F` [Example I-11], a half-maximal effect (Homo sapiens, SK-MEL-28, 72 h) (EC50) was put at 1070 nM. On the same count and under the same terms, to `CCCS(=O)(=O)Nc1ccc(F)c(Nc2ncnc3cnc(N4CCC(CN5CCCC5)CC4)nc23)c1F` [Example I-12] belongs 952 nM; to `CCCS(=O)(=O)Nc1ccc(F)c(Nc2ncnc3cnc(NC4CCN(C)CC4)nc23)c1F` [Example I-13], 1480 nM. On the same count and under the same terms, in the case of `CCCS(=O)(=O)Nc1ccc(F)c(Nc2ncnc3cnc(N4CCC(CN(CC)CC)CC4)nc23)c1F` [Example I-14] it was 1670 nM. The same measure, in the same setting: in the case of `CCCS(=O)(=O)Nc1ccc(F)c(Nc2ncnc3cnc(N4CCN(CCN(C)C)CC4)nc23)c1F` [Example I-15] it was 781 nM; in that of `CCCS(=O)(=O)Nc1ccc(F)c(Nc2ncnc3cnc(N[C@H]4CC[C@H](N5CCOCC5)CC4)nc23)c1F` [Example I-16], 1030 nM; in that of `CCCS(=O)(=O)Nc1ccc(F)c(Nc2ncnc3cnc(NC4CCN(CCOC)CC4)nc23)c1F` [Example I-17], 1600 nM. Take `CCCS(=O)(=O)Nc1ccc(F)c(Nc2ncnc3cnc(N4C[C@@H](C)O[C@@H](C)C4)nc23)c1F` [Example I-18]: the EC50 (Homo sapiens, SK-MEL-28, 72 h) is 774 nM. The compound `CCCS(=O)(=O)Nc1ccc(F)c(Nc2ncnc3cnc(N4CCC(CN(C)C)CC4)nc23)c1F` [Example I-19] yielded an EC50 (Homo sapiens, SK-MEL-28, 72 h) of 1250 nM. Where the note is “Homo sapiens, SK-MEL-28, 72 h”, `CCCS(=O)(=O)Nc1ccc(F)c(Nc2ncnc3cnc(N4CCC(C(C)N(C)C)CC4)nc23)c1F` (stereo not drawn) [Example I-20] came in with an EC50 of 1590 nM. Still for that read-out and setting: to `CCCS(=O)(=O)Nc1ccc(F)c(Nc2ncnc3cnc(N4CCC5(CCN(C)CC5)CC4)nc23)c1F` [Example I-21] belongs 440 nM; to `CCCS(=O)(=O)Nc1ccc(F)c(Nc2ncnc3cnc(N[C@H]4CCOC4)nc23)c1F` [Example I-22], 919 nM. Still for that read-out and setting: to `CCCS(=O)(=O)Nc1ccc(F)c(Nc2ncnc3cnc(N(C)C)nc23)c1F` [Example I-23] belongs 1630 nM; to `CCCS(=O)(=O)Nc1ccc(F)c(Nc2ncnc3cnc(-n4cncn4)nc23)c1F` [Example I-24], 1500 nM; to `CCCS(=O)(=O)Nc1ccc(F)c(Nc2ncnc3cnc(-n4cnc(C)c4C)nc23)c1F` [Example I-25], 143 nM.

`CCCS(=O)(=O)Nc1ccc(F)c(Nc2ncnc3cnc(-n4cc(C)nc4C)nc23)c1F` [Example I-26] returned an EC50 (Homo sapiens, SK-MEL-28, 72 h) of 212 nM. The compound `CCCS(=O)(=O)Nc1ccc(F)c(Nc2ncnc3cnc(-n4ccc(C)n4)nc23)c1F` [Example I-27] came in with an EC50 (Homo sapiens, SK-MEL-28, 72 h) of 807 nM.

Compound `CCCS(=O)(=O)Nc1ccc(F)c(Nc2ncnc3cnc(Nc4ccncc4)nc23)c1F` [Example I-28] had an EC50 (Homo sapiens, SK-MEL-28, 72 h) of 424 nM.

For the compound `CCCS(=O)(=O)Nc1ccc(F)c(Nc2ncnc3cnc(Nc4ccc(N5CCN(C)CC5)cc4)nc23)c1F` [Example I-29], a half-maximal effect (Homo sapiens, SK-MEL-28, 72 h) (EC50) was put at 526 nM. For `CCCS(=O)(=O)Nc1ccc(F)c(Nc2ncnc3cnc(-n4ccnc4)nc23)c1F` [Example I-30], the EC50 (Homo sapiens, SK-MEL-28, 72 h) is 504 nM. Same read-out and setting: in the case of `CCCS(=O)(=O)Nc1ccc(F)c(Nc2ncnc3cnc(-n4cccn4)nc23)c1F` [Example I-31] it was 936 nM. `CCCS(=O)(=O)Nc1ccc(F)c(Nc2ncnc3cnc(-n4ccnc4C)nc23)c1F` [Example I-32] came in with an EC50 (Homo sapiens, SK-MEL-28, 72 h) of 297 nM. Still for that read-out and setting: to `CCCS(=O)(=O)Nc1ccc(F)c(Nc2ncnc3cnc(NCCOC)nc23)c1F` [Example I-33] belongs 1800 nM.

The EC50 is the concentration at which the effect is half-maximal. A high value points to lower potency in that assay.
